From patent US11111248B2, “Crystal form of 2-(6-methyl-pyridin-2-yl)-3-yl-[6-amido-quinolin-4-yl]-5,6-dihydro-4H-pyrrolo[1,2-B]pyrazole, preparation method therefor and pharmaceutical composition thereof” (Hangzhou SoliPharma Co., Ltd., priority 2017, dated 2021)
In brackets after ≈: the same amount, converted by molar mass. Entries after “also recorded” stand apart in the source; their conditions may differ.

Legend:
Format in all cases: physicochemical
[1] = thermal phase stability from DSC and TGA thermograms; conditions: for phase transformation on heating: DSC and TGA thermograms
Experimental: […] data were collected on TA Instruments Q200 DSC. Method: A sample of 1 to 10 mg was placed in an aluminum pan with a pin-holed lid, and the sample was heated from room temperature to 200° C. at a heating rate of 10° C./min under the protection of dry nitrogen purge at 40 mL/min.
Thermogravimetric analysis data were collected on TA Instruments Q500 TGA. Method: A sample of 5 to 15 mg was placed in a platinum pan, using High Resolution™, the sample was heated from room temperature to 350° C. at a heating rate of 10° C./min under the protection of dry nitrogen purge at 40 mL/min.

[2] = isothermal sorption (dynamic vapor sorption); conditions: 0% RH to 80% RH; for hygroscopicity: isothermal sorption
Experimental: Dynamic vapor sorption data and isothermal sorption data were collected on TA Instruments Q5000 TGA. Method: A sample of 1 to 10 mg was placed in a platinum pan; the weight change of the sample during the change in relative humidity from 0% to 80% to 0% was measured.

[3] = water solubility test; conditions: for Solubility: 25° C.±2° C., visual clarity, 5 mg sample, max 100 mL water
Experimental: Accurately weighed 5 mg samples in a 200 mL flask which was in a water bath with temperature 25° C.±2° C., added water in a geometric fashion the flask, stirred (about 200 r/min), and observed by naked eyes to see if it was clear. Water was added every 3 mins, maximum water amount 100 mL.

Compound | phase transformation on heating [1] | hygroscopicity [2] | water solubility [3] | Solubility [3] [µg/mL] | weight change, isothermal sorption curve [2] [%] | dehydration and start of phase transition temperature ([1]; DSC) [°C] | phase transition temperature lower than that of Form 2 ([1]; DSC thermograms, difference to Form 2) [°C]
Cc1cccc(-c2nn3c(c2-c2ccnc4ccc(C(N)=O)cc24)CCC3)n1 [LY2157299 Form 1, 2-(6-methyl-pyridin-2-yl)-3-(6-amido-quinolin-4-yl)-5,6-dihydro-4h-pyrrolo[1,2-b]pyrazole] | no phase transformation before melting | non-hygroscopic | about 160 ug/mL | 160 (≈ 433 µM) |  |  | 
Cc1cccc(-c2nn3c(c2-c2ccnc4ccc(C(N)=O)cc24)CCC3)n1 [LY2157299 Form 2, 2-(6-methyl-pyridin-2-yl)-3-(6-amido-quinolin-4-yl)-5,6-dihydro-4h-pyrrolo[1,2-b]pyrazole] |  | slightly hygroscopic | about 200 ug/mL | 200 (≈ 541 µM) | 0.25 |  | 
Cc1cccc(-c2nn3c(c2-c2ccnc4ccc(C(N)=O)cc24)CCC3)n1 [LY2157299 Form 3, 2-(6-methyl-pyridin-2-yl)-3-(6-amido-quinolin-4-yl)-5,6-dihydro-4h-pyrrolo[1,2-b]pyrazole] | no phase transformation before melting | non-hygroscopic | about 150 μg/mL | 150 (≈ 406 µM) |  |  | 
Cc1cccc(-c2nn3c(c2-c2ccnc4ccc(C(N)=O)cc24)CCC3)n1 [LY2157299 Form 4, 2-(6-methyl-pyridin-2-yl)-3-(6-amido-quinolin-4-yl)-5,6-dihydro-4h-pyrrolo[1,2-b]pyrazole] |  | slightly hygroscopic | about 100 ug/mL | 100 (≈ 271 µM) | 0.95 |  | 
Cc1cccc(-c2nn3c(c2-c2ccnc4ccc(C(N)=O)cc24)CCC3)n1 [LY2157299 Form 7, 2-(6-methyl-pyridin-2-yl)-3-(6-amido-quinolin-4-yl)-5,6-dihydro-4h-pyrrolo[1,2-b]pyrazole] |  |  | about 100 μg/mL | 100 (≈ 271 µM) |  |  | 
Cc1cccc(-c2nn3c(c2-c2ccnc4ccc(C(N)=O)cc24)CCC3)n1 [LY2157299 Monohydrate, 2-(6-methyl-pyridin-2-yl)-3-(6-amido-quinolin-4-yl)-5,6-dihydro-4h-pyrrolo[1,2-b]pyrazole] | dehydrates under temperature and its phase transformes; also recorded: dehydrates under temperature and has phase transformation | slightly hygroscopic |  | <50 |  | 133 | 60
